One may read the inhibition as the relative decrease from the control value, in per cent. Higher therefore signals strong suppression.

The structures appear in SMILES notation. Like-named read-outs stand apart in the source and are kept apart here. Where only a bound is given, the exact number is not on record here.

This is an account of results in PMC8496750, “Identification of the organic anion transporting polypeptides responsible for the hepatic uptake of the major metabolite of epyrifenacil, S‐3100‐CA, in mice” (Pharmacology Research & Perspectives, 2021).

Data set [1] has as its target T1, mouse Oatp1a1 (Mus musculus, UniProt Q9QXZ6).
T1 sequence (Q9QXZ6 1-670): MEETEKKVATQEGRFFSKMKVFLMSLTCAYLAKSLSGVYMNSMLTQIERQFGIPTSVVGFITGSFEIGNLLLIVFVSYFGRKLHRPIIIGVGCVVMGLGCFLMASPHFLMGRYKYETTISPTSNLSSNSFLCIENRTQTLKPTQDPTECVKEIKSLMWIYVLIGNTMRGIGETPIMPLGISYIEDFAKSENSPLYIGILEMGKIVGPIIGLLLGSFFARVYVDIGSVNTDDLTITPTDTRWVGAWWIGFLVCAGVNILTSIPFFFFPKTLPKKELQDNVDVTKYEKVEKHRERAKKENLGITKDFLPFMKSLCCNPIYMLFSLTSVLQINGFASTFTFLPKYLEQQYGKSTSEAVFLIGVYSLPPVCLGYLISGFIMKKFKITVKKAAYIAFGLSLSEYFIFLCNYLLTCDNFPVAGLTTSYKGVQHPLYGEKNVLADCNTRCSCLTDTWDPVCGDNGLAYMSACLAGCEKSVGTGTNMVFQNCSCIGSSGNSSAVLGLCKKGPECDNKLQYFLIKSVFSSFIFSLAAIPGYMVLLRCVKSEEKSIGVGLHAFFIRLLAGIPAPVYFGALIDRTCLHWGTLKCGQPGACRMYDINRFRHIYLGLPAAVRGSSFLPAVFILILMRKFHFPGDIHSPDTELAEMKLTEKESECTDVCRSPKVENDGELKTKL
Particulars: inhibitor at 100 μM.
Experimental: (§1) 293FT cells were purchased from Thermo Fisher Scientific, Inc.. The cells were grown in Dulbecco's modified Eagle medium (supplemented with 4.5 g/L glucose and 2 mM L‐glutamine) at 37°C, 5% CO2, and 95% humidity. The cells were passaged 3 times per week by harvesting cells using trypsin and plating at a density of 1.0 × 10^4 cells/cm^2 in a 10 cm cell culture plate for maintenance culture. The 293FT cells were detached using trypsin and re‐seeded at a density of 2.5 × 10^4 cells/cm^2 in BioCoat™ Collagen I 6‐well plates (Corning Inc.) for transfection and then treated with 1.2 μg of plasmid vector and 3.2 μl of Lipofectamine™ 2000 Transfection Reagent (Thermo Fisher Scientific, Inc.) according to the manufacturer's instructions. After a 3‐h treatment, the transfection medium was replaced with a fresh cell culture medium and incubated at 37°C with 95% humidity and 5% CO2 until ready for the assay.
(§2) Transport experiments were conducted approximately 24 h post‐transfection. The experiments were initiated by aspirating culture medium and addition of pre‐warmed radiolabeled substrate solution (final 1.0% of acetonitrile or 0.9% of ethanol in phosphate‐buffered saline (PBS[−])) to each well. After a 10‐min incubation, cells were washed twice with 1 ml of ice‐cold PBS(−) and lysed with 700 μl of 1.0 M NaOH for 3 h or more at room temperature. The lysate was transferred to a 1.5‐ml tube, and neutralized with 350 μl of 2.0 M HCl and 350 μl of 2.0% sodium dodecyl sulfate (SDS) solution. From the lysate, 1.0 ml was transferred to a vial containing 10 ml of Emulsifier Scintillator Plus to measure the radioactivity in the LSC. The protein concentration of the cell lysate was also measured using a Pierce™ BCA Protein Assay Kit (Thermo Fisher Scientific, Inc.), which was used to normalize, according to the cell number, the radioactivity in the cell lysate extract. The protein assay was performed in duplicate. Each sample type was assayed in triplicate wells, and each run was performed twice. […] Each sample type was assayed in triplicate wells.

For data set [2], the target named is T2, mouse Oatp1a4 (Mus musculus, UniProt Q9EP96).
T2 sequence (Q9EP96 1-670): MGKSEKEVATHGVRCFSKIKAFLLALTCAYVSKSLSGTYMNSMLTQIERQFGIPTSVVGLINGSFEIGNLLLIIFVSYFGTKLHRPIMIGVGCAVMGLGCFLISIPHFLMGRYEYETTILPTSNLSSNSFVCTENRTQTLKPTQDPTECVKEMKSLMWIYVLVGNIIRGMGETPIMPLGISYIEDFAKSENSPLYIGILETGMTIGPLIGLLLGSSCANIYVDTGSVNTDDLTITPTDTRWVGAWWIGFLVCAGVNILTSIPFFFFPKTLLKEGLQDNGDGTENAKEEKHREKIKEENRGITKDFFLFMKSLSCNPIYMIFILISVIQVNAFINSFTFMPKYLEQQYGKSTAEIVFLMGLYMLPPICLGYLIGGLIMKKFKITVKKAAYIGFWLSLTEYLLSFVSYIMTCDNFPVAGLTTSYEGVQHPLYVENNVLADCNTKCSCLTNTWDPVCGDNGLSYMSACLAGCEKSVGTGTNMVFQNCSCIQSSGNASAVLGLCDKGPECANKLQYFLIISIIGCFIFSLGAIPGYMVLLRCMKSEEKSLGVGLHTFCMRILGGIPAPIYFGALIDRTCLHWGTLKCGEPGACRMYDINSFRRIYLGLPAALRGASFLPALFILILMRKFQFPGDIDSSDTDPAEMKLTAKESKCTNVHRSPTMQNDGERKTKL
As to conditions: inhibitor at 100 μM.
Experimental: as §1, §2

The target of data set [3] is T1, mouse Oatp1a1. Put plainly: in vitro. As to conditions: 293FT cells transiently transfected with mouse Oatp1a1, probe radiolabeled S‐3100‐CA.
Experimental: as §1, §2
Data set [4] concerns the target T2, mouse Oatp1a4. Put plainly: in vitro. Particulars: 293FT cells transiently transfected with mouse Oatp1a4, probe radiolabeled S‐3100‐CA.
Experimental: as §1, §2
Data set [5] is described as follows: Metabolite analysis in plasma, liver, and kidney (TLC). Type of data set: in vivo, Crl:CD1(ICR) mice. As to conditions: for concentration at 2 h / Kp at 2 h: Crl:CD1(ICR), mouse, oral; for Kp at 2 h: liver and plasma, read-out: Liver/plasma ratio of S‐3100‐CA; for Kp at 2 h / S‐3100‐CA concentration in liver: 2 h. The text has this:
Precoated silica gel 60 F254 chromatoplate (20 × 20 cm, 0.25‐ or 0.5‐mm layer thickness, Merck KGaA) was used for two‐dimensional thin layer chromatography (2D‐TLC) analysis. The solvent systems were ethyl formate/formic acid (95/5, v/v) for the first dimension, and ethyl acetate/acetic acid (95/5, v/v) for the second dimension. The radioactivity on the TLC plates was detected by autoradiography using an imaging plate processed with a fluoro‐image analyzer (FLA‐9500, GE Healthcare). The identity of the metabolites was confirmed by co‐chromatography in comparison with authentic metabolite standards.
Three mice per sex at 8 weeks old were given a single oral dose of [^14C]epyrifenacil at 1 mg/kg with or without co‐administration of OATP inhibitors. […] At 2 h after administration of [^14C]epyifenacil, the animals were euthanized by whole blood collection from the abdominal aorta under anesthesia with isoflurane. The sampling time point was selected as the time around T max based on the result of the blood ^14C‐concentration study. Then, the liver and kidney were dissected out, and the amount of ^14C was measured. Aliquots of heparinized blood samples were separated into blood cells and plasma by centrifugation at 2000g for 10 min at 4°C. The total weight of the liver and kidney was determined for each animal. Two aliquots of plasma and tissue samples (approximately 0.05–0.1 g) were weighed in a glass vial, and the radioactivity was measured.
Approximately 0.3 g of liver, kidney, and plasma samples were pooled, respectively, for each dose and gender to obtain samples for analysis. Pooled liver, kidney, and plasma (ca. 1 g each) samples were homogenized with an approximately 3‐fold volume (v/w) of methanol using the mixer mill MM400 (5 min, 25 cycles/second, Retsch GmbH) and centrifuged (10 000g, 5 min, 4°C) to separate the supernatants from the residues. The extraction was repeated one additional time. The supernatants obtained were pooled and labeled liver, kidney, and plasma extracts. These samples were concentrated and then subjected to TLC analysis. For calculation of extraction efficacy, the post‐extraction solids (PESs) from the tissues and plasma extracts were sampled in low potassium glass vials. PESs were solubilized with 3 M potassium hydroxide solution (approximately 1 ml), then bleached with 30% hydrogen peroxide solution, and finally mixed with 10 ml of Hionic‐Fluor to measure the radioactivity.

Details of data set [6]: method as in PMID 34908893. As to conditions: rats; 90‐day; cited from earlier work.

With `CO[C@H]1/C=C/O[C@@]2(C)Oc3c(C)c(O)c4c(O)c(c(/C=N/N5CCN(C)CC5)c(O)c4c3C2=O)NC(=O)/C(C)=C\C=C\[C@H](C)[C@H](O)[C@@H](C)[C@@H](O)[C@@H](C)[C@H](OC(C)=O)[C@@H]1C` [RIF, Rifampicin], the “Uptake of S‐3100‐CA, % of that by vehicle‐treated cells” value at mouse Oatp1a1 [1] and at mouse Oatp1a4 [2] was “less than 40%” throughout. For the same compound, the inhibition at 10 min, 10 µM against mouse Oatp1a1 [3] and against mouse Oatp1a4 [4] was more than 50% each time.

As for `Cn1c(C(F)(F)F)cc(=O)n(-c2cc(Oc3cccnc3OCC(=O)O)c(Cl)cc2F)c1=O` [S‐3100‐CA], the concentration at 2 h was found to be 50 ng/g in data set [5] (kidney, with rifampicin (OATP inhibitor) 200 mg/kg p.o., Female, 2 h after [^14C]Epyrifenacil 1 mg/kg p.o. + Rifampicin 200 mg/kg p.o., read-out: Metabolite concentration, Kidney); 73 ng/g in data set [5] (kidney, with rifampicin (OATP inhibitor) 200 mg/kg p.o., Male, 2 h after [^14C]Epyrifenacil 1 mg/kg p.o. + Rifampicin 200 mg/kg p.o., read-out: Metabolite concentration, Kidney); 96 ng/g in data set [5] (kidney, Female, 2 h after [^14C]Epyrifenacil 1 mg/kg p.o., read-out: Metabolite concentration, Kidney); 55 ng/g in data set [5] (kidney, Male, 2 h after [^14C]Epyrifenacil 1 mg/kg p.o., read-out: Metabolite concentration, Kidney); 660 ng/g in data set [5] (liver, with rifampicin (OATP inhibitor) 200 mg/kg p.o., Female, 2 h after [^14C]Epyrifenacil 1 mg/kg p.o. + Rifampicin 200 mg/kg p.o., read-out: Metabolite concentration, Liver); 1370 ng/g in data set [5] (liver, with rifampicin (OATP inhibitor) 200 mg/kg p.o., Male, 2 h after [^14C]Epyrifenacil 1 mg/kg p.o. + Rifampicin 200 mg/kg p.o., read-out: Metabolite concentration, Liver). Further, the concentration at 2 h in data set [5] (liver, Female, 2 h after [^14C]Epyrifenacil 1 mg/kg p.o., read-out: Metabolite concentration, Liver) is 3520 ng/g; in data set [5] (liver, Male, 2 h after [^14C]Epyrifenacil 1 mg/kg p.o., read-out: Metabolite concentration, Liver), 4740 ng/g; in data set [5] (plasma, with rifampicin (OATP inhibitor) 200 mg/kg p.o., Female, 2 h after [^14C]Epyrifenacil 1 mg/kg p.o. + Rifampicin 200 mg/kg p.o., read-out: Metabolite concentration, Plasma), 143 ng/g; in data set [5] (plasma, with rifampicin (OATP inhibitor) 200 mg/kg p.o., Male, 2 h after [^14C]Epyrifenacil 1 mg/kg p.o. + Rifampicin 200 mg/kg p.o., read-out: Metabolite concentration, Plasma) it was 76 ng/g; in data set [5] (plasma, Female, 2 h after [^14C]Epyrifenacil 1 mg/kg p.o., read-out: Metabolite concentration, Plasma), 68 ng/g; in data set [5] (plasma, Male, 2 h after [^14C]Epyrifenacil 1 mg/kg p.o., pooled samples, read-out: Metabolite concentration, Plasma), 54 ng/g. Moreover, the “Share of ^14C in liver” value in data set [5] (all dose groups) is “over 70%”. Also, the Kp at 2 h was 52 in data set [5] (female, 1 mg/kg, females, epyrifenacil 1 mg/kg p.o. without inhibitors); 50 to 56 in data set [5] (female, females, DGX co‐administrated (oral or intraperitoneal)); 5 in data set [5] (female, females, RIF co‐administrated); 88 in data set [5] (male, 1 mg/kg, males, epyrifenacil 1 mg/kg p.o. without inhibitors); 89 to 139 in data set [5] (male, males, DGX co‐administrated (oral or intraperitoneal)); 18 in data set [5] (male, males, RIF co‐administrated). In addition, the “S‐3100‐CA concentration in liver” value in data set [5] (females, RIF co‐administrated) was 0.660 ppm; in data set [5] (males, RIF co‐administrated), 1.371 ppm.

Consider `CCOC(=O)COc1ncccc1Oc1cc(-n2c(=O)cc(C(F)(F)F)n(C)c2=O)c(F)cc1Cl` [Epyrifenacil, ethyl[(3‐{2‐chloro‐4‐fluoro‐5‐[3‐methyl‐2,6‐dioxo‐4‐(trifluoromethyl)‐3,6‐dihydropyrimidin‐1(2H)‐yl]phenoxy}pyridin‐2‐yl)oxy]acetate], for which the Hepatocyte injury result in data set [6] is “produced hepatocyte injury”.
